According to ChEMBL document CHEMBL1201862, “PubChem BioAssay data set” (2004):
Active and inactive are the calls of the source.

Assays:
[1] = target: T1, Aryl hydrocarbon receptor (Homo sapiens, UniProt P35869); experiment: Luminescence-based cell-based high throughput dose response assay for activators of the Aryl Hydrocarbon Receptor (AHR). [Related pubchem assays: 2796 (Primary screen (AHR activators in singlicate)), 2845 (Confirmation screen (AHR activators in triplicate)), 434939 (Counterscreen (PXR activators in triplicate)), 2804 (Summary (AHR activators))]; assay type: ADME
T1 sequence (P35869 whole entry): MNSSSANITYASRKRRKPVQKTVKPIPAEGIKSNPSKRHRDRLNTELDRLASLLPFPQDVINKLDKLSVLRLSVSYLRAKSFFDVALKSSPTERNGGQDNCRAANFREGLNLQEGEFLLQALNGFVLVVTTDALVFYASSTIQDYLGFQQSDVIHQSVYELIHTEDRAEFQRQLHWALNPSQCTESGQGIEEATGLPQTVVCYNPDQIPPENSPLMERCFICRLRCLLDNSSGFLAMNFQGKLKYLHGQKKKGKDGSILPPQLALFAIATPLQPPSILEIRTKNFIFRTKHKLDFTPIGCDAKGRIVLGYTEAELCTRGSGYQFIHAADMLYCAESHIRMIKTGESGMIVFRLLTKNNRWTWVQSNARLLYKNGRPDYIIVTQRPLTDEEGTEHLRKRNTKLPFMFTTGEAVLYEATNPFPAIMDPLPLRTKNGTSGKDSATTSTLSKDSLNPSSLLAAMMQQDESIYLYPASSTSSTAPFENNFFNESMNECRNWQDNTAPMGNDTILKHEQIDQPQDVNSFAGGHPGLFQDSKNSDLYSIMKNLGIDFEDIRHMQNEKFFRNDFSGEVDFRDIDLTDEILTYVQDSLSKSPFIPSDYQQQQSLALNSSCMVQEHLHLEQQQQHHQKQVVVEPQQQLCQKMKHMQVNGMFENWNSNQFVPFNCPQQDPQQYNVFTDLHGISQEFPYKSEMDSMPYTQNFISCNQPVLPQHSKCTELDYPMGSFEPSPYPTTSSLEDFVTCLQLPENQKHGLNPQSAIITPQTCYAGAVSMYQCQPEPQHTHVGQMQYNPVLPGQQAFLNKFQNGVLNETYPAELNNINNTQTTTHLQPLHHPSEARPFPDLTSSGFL

[2] = target: FAD-linked sulfhydryl oxidase ALR (Homo sapiens, UniProt P55789); experiment: inhibitors of human ALR sulfhydryl oxidase, dose response, biochemical, H2O2 detection, luminescence, cherry-pick (AID 493248)
Chain of FAD-linked sulfhydryl oxidase ALR (P55789 whole entry): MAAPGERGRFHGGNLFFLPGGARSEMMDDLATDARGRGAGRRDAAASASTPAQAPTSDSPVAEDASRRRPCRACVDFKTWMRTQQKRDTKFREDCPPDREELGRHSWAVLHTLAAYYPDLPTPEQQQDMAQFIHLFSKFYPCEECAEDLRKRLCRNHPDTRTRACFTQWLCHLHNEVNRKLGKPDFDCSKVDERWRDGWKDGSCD

[3] = target: T2, Sphingosine 1-phosphate receptor 2 (Homo sapiens, UniProt O95136); experiment: Dose Response Cell Based Assay for Agonists of the S1P2 Receptor. [Related pubchem assays: 729, 736, 843 ]; assay type: functional
T2 sequence (O95136 whole entry): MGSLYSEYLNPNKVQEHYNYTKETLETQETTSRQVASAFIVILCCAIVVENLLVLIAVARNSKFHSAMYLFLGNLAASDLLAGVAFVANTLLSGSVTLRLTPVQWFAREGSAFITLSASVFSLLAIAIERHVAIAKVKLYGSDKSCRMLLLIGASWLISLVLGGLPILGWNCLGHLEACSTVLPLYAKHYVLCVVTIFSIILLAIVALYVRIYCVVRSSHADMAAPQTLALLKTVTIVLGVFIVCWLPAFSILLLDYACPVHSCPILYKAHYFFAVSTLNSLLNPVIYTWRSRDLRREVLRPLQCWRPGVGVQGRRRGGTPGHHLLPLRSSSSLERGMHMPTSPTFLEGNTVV

[4] = Luminescence-based cell-based high throughput dose response assay to identify activators of the DAF-12 from the parasite S. stercoralis (ssDAF-12).; assay type: functional
[5] = target: Oxysterols receptor LXR-beta (Homo sapiens, UniProt P55055); experiment: LXR agonists, Gal4 luciferase reporter, dose response, counter-screen for ssDAF-12 agonist project, cell-based, luminescence, HEK293, S. stercoralis campaign (AID 720737); assay type: functional; settings: read-out: IC50 (the source's name)
Chain of Oxysterols receptor LXR-beta (P55055 whole entry, the tested form may be a part): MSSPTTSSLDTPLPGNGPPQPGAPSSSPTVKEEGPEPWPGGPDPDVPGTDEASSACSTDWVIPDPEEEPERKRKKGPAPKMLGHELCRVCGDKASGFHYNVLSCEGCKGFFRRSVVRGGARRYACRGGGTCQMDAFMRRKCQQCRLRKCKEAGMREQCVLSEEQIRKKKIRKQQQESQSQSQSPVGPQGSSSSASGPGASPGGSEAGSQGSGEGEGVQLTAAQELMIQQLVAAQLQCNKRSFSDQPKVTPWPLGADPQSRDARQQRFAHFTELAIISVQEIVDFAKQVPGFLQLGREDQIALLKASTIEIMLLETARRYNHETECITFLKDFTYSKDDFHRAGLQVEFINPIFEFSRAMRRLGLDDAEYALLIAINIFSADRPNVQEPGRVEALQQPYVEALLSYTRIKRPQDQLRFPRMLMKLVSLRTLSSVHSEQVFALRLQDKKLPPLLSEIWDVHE

[6] = HepG2 cell cytotoxicity, dose response, cytotoxicity control, cherry-picked samples (AID 1159577); assay type: functional, cell-based
[7] = P. falciparum Dd2 growth inhibitors, dose response, SYBR Green, cherry-picked samples (AID 1159567); assay type: functional, cell-based
[8] = target: T2, Sphingosine 1-phosphate receptor 2; experiment: Dose Response Cell Based Assay for Antagonists of the S1P2 Receptor. [Related pubchem assays: 856, 736 ]; assay type: functional
[9] = HeLa 4N DNA content increase, dose response, cell-based, IC50 (AID 1117351); assay type: functional
[10] = HeLa 2N DNA content increase, dose response, cell-based, IC50 (AID 1117349); assay type: functional
[11] = PAX2 cell-based inhibition, dose response, selectivity assay for PAX8 inhibitor project, plate reader, dry powder samples (AID 743048); assay type: functional;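 also: HEK293 cells carrying a WT1 promoter luciferase reporter driven by expressed Pax2; potency is for inhibition of Pax2 driven reporter signal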
[12] = cytotoxicity in OV-90 ovarian cancer cells, dose response, PAX8 inhibitor project, cell-based, plate reader, dry powder, SA8 (AID 743149); assay type: functional
[13] = NIH:OVCAR-3 ovarian cancer cell cytotoxicity, dose response, PAX8 inhibitor project, plate reader, dry powder samples (AID 743044); assay type: functional, cell-based
[14] = cytotoxicity dependent on PAX8, dose response, cell-based, plate reader, dry powder (AID 743049); assay type: functional
[15] = PAX5 activity inhibitors, dose response, selectivity assay for PAX8 inhibitor project, cell-based, plate reader, dry powder samples (AID 743047); assay type: functional;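 also: HEK293 cells carrying a Pax5 driven CD19 promoter luciferase reporter; potency of inhibitors that lower reporter luminescence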
[16] = M. tuberculosis H37Rv growth inhibitors, H37Rv strain (AID 1626); assay type: functional

Question: With `Cc1csc(NC(=O)CSc2ccc3nnc(-c4ccncc4)n3n2)n1` as the compound, how does the EC50 [1] read?
Answer: The EC50 was 12 µM (not active).

Question: What does the source list for `Cc1cc(C)c(S(=O)(=O)Nc2ccc(O)cc2)cc1C`?
Answer: AC50 [2]: 0.926 µM (active); EC50 [3]: > 50 µM (not active)

Question: Which IC50 [4] does the source give for `N#C/C(=C\c1ccc[nH]1)C(=O)Nc1ccccc1F` here?
Answer: Its IC50 is > 67.5 µM (inactive).

Question: What about the EC50 [5] of the same compound?
Answer: Its EC50 is > 67.5 µM (inactive).

Question: Which results are given for `Cc1ccc(-c2ccc3c(c2)O[C@H](CN(C)Cc2ccncc2)[C@@H](C)CN([C@H](C)CO)S3(=O)=O)cc1`?
Answer: AC50 [6]: 22.1 µM (active); AC50 [7]: 5.12 µM (active)

Question: With `Cc1ccc2[nH]c3c(N4CCCCCC4)ncnc3c2c1` as the compound, how does the IC50 [8] read?
Answer: The IC50 was 3.44 µM (active).

Question: Which results are given for `COC(=O)[C@H]1[C@H]2C[C@@H]3c4[nH]c5cc(OC)ccc5c4CCN3C[C@H]2C[C@@H](OC(=O)/C=C/c2ccc(O)c(OC)c2)[C@@H]1OC` [RESCIMETOL]?
Answer: IC50 [9]: > 10 µM (inactive); IC50 [10]: > 10 µM (inactive)

Question: Which results are given for `COC(=O)[C@@]1(CCS(=O)(=O)c2ccccc2)N=C(c2ccc(OCCCO)cc2)O[C@H]1c1ccccc1`?
Answer: AC50 [11]: 58.6 µM (active); AC50 [12]: 14.1 µM (active); AC50 [13]: 95 µM (active); AC50 [14]: > 100 µM (inactive); AC50 [15]: 77.3 µM (active)

Question: With `O=C(CCSc1ccc(Cl)cc1)c1cccs1` as the compound, how does the IC50 [16] read?
Answer: The IC50 was > 100 µM (active).

Question: With `COCCOC(=O)C1=C(C)NC(C)=C(C(=O)OC/C=C/c2ccccc2)C1c1cccc([N+](=O)[O-])c1` (centres undefined) [CILNIDIPINE] as the compound, how does the IC50 [9] read?
Answer: The IC50 was > 10 µM (inactive).

Question: What about the IC50 [10] of the same compound?
Answer: The IC50 was > 10 µM (inactive).

Question: With `CCCc1nn(-c2cc(Cl)ccc2OC)c2c1C(=O)CCC2` as the compound, how does the EC50 [3] read?
Answer: Its EC50 is > 50 µM (not active).
